Experimental data from patent US10828301B2, “2,4-pyrimidinediamine compounds and their uses” (Rigel Pharmaceuticals, Inc, priority 2002, dated 2020).
Read-outs that look alike come from different tables or passages of the source.

Legend:
[1] = tested on: proteins downstream of Syk kinase and LYN kinase in activated CHMC cells; assay: Phosphorylation of proteins in the FcεRI signal transduction cascade in activated CHMC cells; assay type: cell-based, human; conditions: FIG. 10
[2] = tested on: basophils in whole human peripheral blood; assay: Basophil dustmite activation: histamine release assay; assay type: cell-based; conditions: read-out: Basophils Dust mite Histmine IC50
Description: The basophil activation assay was carried out using whole human peripheral blood from donors allergic to dust mites with the majority of the red blood cells removed by dextran sedimentation. Human peripheral blood was mixed 1:1 with 3% dextran T500 and RBCs were allowed to settle for 20-25 min. The upper fraction was diluted with 3 volumes of D-PBS and cells were spun down for 10 min at 1500 rpm, RT. Supernatant was aspirated and cells were washed in an equal volume MT-buffer. Finally, cells were resuspended in MT-buffer containing 0.5% DMSO in the original blood volume. 80 uL cells were mixed with 20 uL compound in the presence of 0.5% DMSO, in triplicate, in a V-bottom 96-well tissue culture plate. A dose range of 8 compound concentrations was tested resulting in a 10-point dose response curve including maximum (stimulated) and minimum (unstimulated) response. […] The cells were stimulated for 30 minutes at 37° C., 5% CO2. […] The ELISA was performed according to supplier's instructions.

[3] = tested on: cultured human mast cells (CHMC); assay: CHMC low cell density IgE activation: tryptase and LTC4 assays; assay type: cell-based; conditions: Homo sapiens, Mast cell, Low Density CHMC, anti-IgE activation, tryptase readout; read-out: CHMC anti-IgE Tryptase
Summary of the method: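 Degranulation measured after 30 min anti-IgE challenge at 37° C of CHMC plated at 1000-1500 cells/well following 1 h preincubation. Readouts: LTC4 by ELISA on donor-specific diluted supernatants, and tryptase activity from a 30 min room-temperature substrate reaction.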

[4] = tested on: cultured human mast cells (CHMC); assay: CHMC high cell density IgE activation: degranulation (hexos, tryptase, histamine), leukotriene (LTC4) and cytokine (TNFalpha, IL-13) assays; assay type: cell-based; conditions: anti-IgE activation
Summary of the method: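 IgE-sensitized CHMC at 1-2×10^6 cells/ml in MT buffer were pretreated with compound for 1 h at 37 °C (0.5% DMSO final), then stimulated with anti-IgE for 1 h. Tryptase was measured in 1:500-diluted supernatant. Pellets were re-incubated for 7 h with compound in CM media, and supernatants were assayed by ELISA.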

[5] = tested on: basophils in whole human peripheral blood; assay: Basophil IgE activation: histamine release assay; assay type: cell-based; conditions: Homo sapiens, anti-IgE activation
Summary of the method: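 Dextran-sedimented whole blood from dust-mite-allergic human donors, resuspended in MT-buffer with 0.5% DMSO and preincubated with 8 compound concentrations in triplicate. Cells stimulated 30 min at 37 °C. Histamine released into the supernatant measured by ELISA.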

[6] = tested on: basophils in whole human peripheral blood; assay: Basophil ionomycin activation: histamine release assay; assay type: cell-based
Description: Assays for ionomycin-induced basophil cell degranulation were carried out as described for the Basophil IgE or Dustmite Activation Assay (Section 6.4.6, supra), with the exception that following incubation with compound, cells were stimulated with 20 μl of 2 μM ionomycin.

[7] = tested on: cultured human mast cells (CHMC); assay: CHMC low cell density ionomycin activation: tryptase assay; assay type: cell-based; conditions: Homo sapiens, Mast cell, Low Density CHMC, ionomycin activation, tryptase readout; read-out: CHMC Ionomycin Tryptase
B-cell line BJAB = assay: BJAB toxicity: Cell Titer Glo assay; assay type: cell-based; conditions: Homo sapiens, 18 hours
Description: (§1) Seed 50 μl cells (1×10^6/ml) into each well containing 50 μl compound. The final vehicle concentration is 0.5% DMSO, 1.5% MeOH. Shake plates for 1 minute to mix cells and compound. Incubate plates at 37° C. (5% CO2) for 18 hours. Next day, harvest 50 μl cells from each well, add to 50 μl Cell Titer Glo reagent ([…]). Shake plates for 1 minute. Read on luminometer.

Jurkat cells = assay: Jurkat toxicity: Cell Titer Glo assay; assay type: cell-based; conditions: Homo sapiens, 18 hours
Description: as §1, with “The final vehicle concentration is 0.5% DMSO, 1.5% MeOH.” left out, “(5% CO2) for 18 hours.” left out

[8] = tested on: FcεR1-mediated degranulation in mast cells; assay: FcεRI-mediated (anti-IgE induced) degranulation assay in mast cells; assay type: cell-based; conditions: Mast cell; range stated for the whole listed group of compounds; read-out: inhibition of FcεR1-mediated degranulation in mast cells (IC50s)
[9] = tested on: bone marrow derived mast cells (BMMC); assay: BMMC high cell density IgE activation: degranulation (hexosiminidase, histamine), leukotriene (LTC4) and cytokine (TNFalpha, IL-6) assays; assay type: cell-based; conditions: Mus musculus, anti-IgE activation
Syk kinase = Syk kinase (Homo sapiens (Human), UniProt P43405); assay: Isolated Syk kinase biochemical assay (phosphorylation of a peptide or endogenous substrate)
[10] = Sheep model of allergic asthma (Ascaris suum challenge); assay type: in vivo; conditions: administered in an aqueous suspension
Description: Sheep develop bronchoconstriction within minutes of exposure to inhaled antigen (Ascaris suum), with maximal airflow obstruction during the early allergic response (EAR). Release of preformed mast cell mediators is likely responsible for this early phase of airflow obstruction. […] In the sheep, AHR develops a few hours following antigen challenge, and can persist for up to 2 weeks.
In the sheep model of allergic asthma, sheep are administered aerosols of test article via an endotracheal tube, followed by an aerosol challenge with antigen extracted from the roundworm, Ascaris suum, to which the sheep are naturally allergic. Allergen challenge leads to direct bronchoconstriction (both EAR and LAR) and a persistent non-specific AHR. These three characteristics are similar to those seen in human allergic asthmatics. The activity of the test agent is determined by changes in the lung resistance (RL), which is calculated from measurements of transpulmonary pressure, flow, and respiratory volume. […] The LAR is a less pronounced increase in RL, which starts approximately 5-6 hours following allergen challenge and is resolved by 8 hours post-challenge. Twenty-four hours after the challenge, a dose response to carbachol is measured to determine the AHR, which is expressed as the dose of carbachol required to increase RL by 400% over baseline. […]

[11] = tested on: IgE-induced degranulation of tissue mast cells; assay: Mouse model of passive cutaneous anaphylaxis (PCA); assay type: in vivo
Description: This model provides a direct measure of IgE-induced degranulation of tissue mast cells. In this model, IgE primed animals are exposed to an allergen challenge, and the change in permeability of dermal vasculature that results from histamine release from mast cells is measured by change in the amount of dye leakage into surrounding tissue. Inhibition of mediator release by compounds that modulate mast cell degranulation is easily measured by extracting the dye from the tissue.
In the PCA assay mice are passively sensitized by intradermal injection with anti-dinitrophenol (DNP) IgE antibodies (Day −1). At predetermined times animals are treated with the test agent (Day 0). The modulatory effect of the agent on cutaneous mast cell degranulation is measured following intravenous injection of DNP conjugated to human serum albumin (HSA-DNP), together with Evans blue dye. The resulting cross-linking of the IgE receptor and subsequent mast cell degranulation-induced increase in vascular permeability is determined by measuring the amount of dye extravasation into the tissue. Dye is extracted from the tissue by formamide, and the absorbance of this extract is read at 620 nm.

[12] = in vitro chromosomal aberration assay; assay type: cell-based
[13] = Mouse model of allergic asthma (ovalbumin); assay type: in vivo
Source text: Mice are sensitized to ovalbumin (chicken protein) in the presence of an adjuvant (Alum) by the intraperitoneal route on day 0 and day 7. One week later, mice are challenged intranasally with ovalbumin on Days 14, 15 and 16 (more stringent model) or on Day 14 (less stringent model). This sensitization and challenge regimen leads to airway hyperresponsiveness and inflammation in the lungs, which are two dominant characteristics of human allergic asthma. In the mouse model, the in vivo airway responses are measured using a whole body plethysmograph which determines the PENH (enhanced Pause, Buxco Electronics). The PENH is a dimensionless value comprised of the peak inspiratory flow (PIF), peak expiratory flow (PEF), time of inspiration, time of expiration and relaxation time, and is considered a validated parameter of airway responsiveness. Responses to allergen challenge (OVA) are compared with animals challenged with saline only. Twenty-four hours after challenge, mice are exposed to increasing doses of methacholine (muscarinic receptor agonist) which results in smooth muscle contraction. […] In addition, a cellular infiltrate in the airway is observed in ovalbumin challenged mice when compared with the saline challenged mice. This cellular infiltrate is mainly characterized by eosinophils, but a smaller influx of neutrophils and mononuclear cells is also present.
The use of this model for the evaluation of small molecule inhibitors of mast cell degranulation has been validated is several ways. First, using mast cell deficient mice (W/W^v) it has been shown that the ovalbumin-induced responses are dependent upon the presence of mast cells.

[14] = tested on: proteins downstream of Syk kinase in activated BMMC cells; assay: Phosphorylation of proteins in the IgE receptor signal transduction cascade in activated BMMC cells; assay type: cell-based, mouse; conditions: varying concentrations, FIG. 7
[15] = IL-13, read-out: CHMC high density IL-13
[16] = TNF-alpha, read-out: CHMC high density TNF-alpha
[17] = hexosaminidase release, read-out: CHMC high density hexos
[18] = histamine release, read-out: CHMC high density histamine
[19] = tryptase release, read-out: CHMC high density tryptase
[20] = LTC4, read-out: CHMC high density LTC4

CC(C)(C)n1nc(-c2ccc(Cl)cc2)c2c(N)ncnc21 [PP2, reference compound]
phosphorylation of proteins downstream of LYN kinase in the FcεRI signal transduction cascade [1]: inhibition of phosphorylation

O=C(NCCO)c1cc2cc(Nc3ncc(F)c(Nc4cccc(O)c4)n3)ccc2o1 [Compound R926497, 5-Fluoro-N4-(3-hydroxyphenyl)-N2-[2-(N-2-hydroxyethylamino)carbonylbenzofuran-5-yl]-2,4-pyrimidinediamine]
IC50 [2]: 0.205 µM
IC50 [3]: 0.138 µM
IC50 [4, 15]: > 10 µM
IC50 [4, 16]: 1.88 µM
IC50 [4, 17]: 1.11 µM
IC50 [4, 18]: 1.33 µM
IC50 [4, 19]: 1.23 µM
IC50 [5]: 0.27 µM
IC50 ([6]; Homo sapiens): > 10 µM
IC50 [7]: > 10 µM

OCCOc1cccc(Nc2ncc(F)c(Nc3cccc(OCCO)c3)n2)c1 [Compound R935075, N2,N4-Bis[3-(2-hydroxyethoxy)phenyl]-5-fluoro-2,4-pyrimidinediamine]
IC50 (B-cell line BJAB): > 4.33 µM
IC50 [3]: 0.93 µM
IC50 [4, 20]: < 0.22 µM
IC50 [4, 16]: > 2 µM
IC50 [4, 17]: 0.647 µM
IC50 [4, 19]: 1.21 µM
IC50 (Jurkat cells): > 4.33 µM
IC50 [7]: > 10 µM

Cc1cc(Nc2ncc(F)c(Nc3cccc(O)c3)n2)cc(Cl)c1O [Compound R940233, N2-(3-Chloro-4-hydroxy-5-methylphenyl)-5-fluoro-N4-(3-hydroxyphenyl)-2,4-pyrimidinediamine]
IC50 (B-cell line BJAB): > 4.33 µM
IC50 [3]: 0.132 µM
IC50 [4, 15]: 1.78 µM
IC50 [4, 20]: 0.118 µM
IC50 [4, 16]: 2.25 µM
IC50 [4, 17]: 0.577 µM
IC50 [4, 18]: 0.586 µM
IC50 [4, 19]: 0.642 µM
IC50 (Jurkat cells): > 4.33 µM
IC50 [7]: > 10 µM

COc1cc(Nc2ncc(F)c(Nc3cccc(O)c3)n2)cc(OC)c1 [Compound R926780, N2-(3,5-Dimethoxyphenyl)-5-fluoro-N4-(3-hydroxyphenyl)-2,4-pyrimidinediamine]
IC50 [8]: 0.03 to 1.65 µM
IC50 (Jurkat cells): > 5 µM
IC50 ([9]; IL-6 release, read-out: BMMC anti-IgE IL-6 IC50): < 0.22 µM
IC50 ([9]; LTC4 release, read-out: BMMC anti-IgE LTC4 IC50): 0.461 µM
IC50 ([9]; TNF-alpha release, read-out: BMMC anti-IgE TNF-alpha IC50): < 0.22 µM
IC50 ([9]; hexosaminidase release, read-out: BMMC anti-IgE hexos IC50): < 0.22 µM
IC50 ([9]; histamine release, read-out: BMMC anti-IgE histamine IC50): < 0.22 µM
IC50 (Syk kinase): 0.003 to 1.85 µM
IC50 [7]: > 10 µM

CNC(=O)COc1cccc(Nc2ncc(C(F)(F)F)c(Nc3cccc(O)c3)n2)c1 [Compound R926742, N4-(3-Hydroxyphenyl)-5-trifluoromethyl-N2-[3-(N-methylamino)carbonylmethyleneoxyphenyl]-2,4-pyrimidinediamine]
effect on the EAR (in words) [10]: failed to inhibit the EAR
inhibition of the PCA response ([11]; oral route in a PEG-based formulation, data not shown): able to inhibit the PCA response
IC50 [6]: > 10 µM

CNC(=O)COc1cccc(Nc2ncc(F)c(Nc3ccc4c(c3)NCCO4)n2)c1 [Compound R921219, N4-(1,4-Benzoxazin-6-yl)-5-fluoro-N2-[3-(N-methylamino)carbonylmethyleneoxyphenyl]-2,4-pyrimidinediamine]
clastogenic potential [12]: not found to possess clastogenic potential
ovalbumin-induced airway hyperresponsiveness and cellular influx ([13]; less stringent protocol (one challenge, Day 14), subcutaneously 70 mg/kg in 67% PEG400/33% citrate buffer, 30 minutes prior to challenge): completely blocked the ovalbumin-induced airway hyperresponsiveness and cellular influx
airway responses in a mouse model of allergic asthma ([13]; summary): efficacious in inhibiting the airway responses
phosphorylation of various proteins downstream of Syk kinase in the IgE receptor signal transduction cascade [14]: inhibit phosphorylation
phosphorylation of proteins downstream of Syk kinase in the FcεRI signal transduction cascade [1]: inhibit phosphorylation
circulating exposure levels at which active ([11]; PCA assay): approximately 10 μg/ml
inhibition of the PCA response / FcεR-mediated vascular leakage (in words) ([11]; mouse, in vivo): dose-dependent inhibition
Syk kinase phosphorylation of an endogenous substrate (LAT) and a peptide substrate (Syk kinase; increasing concentrations, FIG. 8): dose responsive inhibition
IC50 [6]: > 10 µM
